According to patent US20230114241A1, “METHODS OF TREATING EPILEPSY USING THE SAME” (Trevena, Inc., priority 2019, published 2023):

Key:
[1] = biological target: T1, human sphingosine-1-phosphate receptor 1 (S1P1) (Homo sapiens, UniProt P21453); assay: Inhibition of cAMP production (HTRF cAMP HiRange), S1P1 CHO-K1 cells; assay type: cell-based; details: inhibition of cAMP production; for Emax: CHO-K1, efficacy normalized to maximum efficacy of fingolimod, read-out: hS1P1 CAMP SPAN; for EC50: potency, read-out: hS1P1 CAMP pEC50 (converted)
How it was run: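 CHO-K1 cells co-expressing human S1P1 (C-terminal ProLink tag) and EA-β-arrestin2, plated overnight; after 30 min compound incubation at 37 °C, intracellular cAMP measured by HTRF TR-FRET following 1 h at room temperature. Values normalized to fingolimod.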
Target sequence in this assay (P21453 whole entry): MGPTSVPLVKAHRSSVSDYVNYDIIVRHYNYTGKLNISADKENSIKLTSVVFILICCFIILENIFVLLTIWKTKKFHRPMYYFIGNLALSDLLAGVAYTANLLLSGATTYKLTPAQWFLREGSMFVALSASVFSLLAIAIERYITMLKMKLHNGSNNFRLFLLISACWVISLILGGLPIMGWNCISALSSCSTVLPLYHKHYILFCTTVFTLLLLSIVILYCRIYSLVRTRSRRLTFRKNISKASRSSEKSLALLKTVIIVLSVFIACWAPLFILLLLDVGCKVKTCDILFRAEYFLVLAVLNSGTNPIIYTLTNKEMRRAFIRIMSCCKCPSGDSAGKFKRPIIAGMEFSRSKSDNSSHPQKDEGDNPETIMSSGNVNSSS

[2] = biological target: T1, human sphingosine-1-phosphate receptor 1 (S1P1); assay: β-Arrestin2 recruitment assay (PathHunter), S1P1 CHO-K1 cells; assay type: cell-based; details: for Emax: CHO-K1, β-arrestin2 recruitment, efficacy normalized to maximum efficacy of fingolimod, read-out: hS1P1 B-arrestin2 SPAN; for EC50: β-arrestin2 recruitment, potency, read-out: hS1P1 B-arrestin2 pEC50 (converted)
How it was run: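 CHO-K1 cells co-expressing EA-β-arrestin2 and ProLink-tagged human S1P1 plated overnight, then stimulated 60 min at 37 °C. Enzyme-fragment complementation (β-galactosidase) detected after 1 h at room temperature by luminescence; values normalized to fingolimod.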
Target sequence in this assay (P21453 whole entry): as above
Target sequence in this assay (P32121 whole entry partner): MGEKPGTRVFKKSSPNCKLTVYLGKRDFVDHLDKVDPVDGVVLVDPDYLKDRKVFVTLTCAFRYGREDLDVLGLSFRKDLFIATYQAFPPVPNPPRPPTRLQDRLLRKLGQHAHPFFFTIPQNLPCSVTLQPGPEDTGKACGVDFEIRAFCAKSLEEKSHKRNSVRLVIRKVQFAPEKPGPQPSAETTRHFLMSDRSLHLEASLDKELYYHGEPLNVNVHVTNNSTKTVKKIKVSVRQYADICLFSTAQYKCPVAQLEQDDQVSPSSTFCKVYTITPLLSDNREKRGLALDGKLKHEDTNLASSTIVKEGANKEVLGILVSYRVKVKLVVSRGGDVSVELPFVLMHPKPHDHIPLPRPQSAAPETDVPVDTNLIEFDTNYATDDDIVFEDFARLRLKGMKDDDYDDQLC

Row | Emax [1] [%] | EC50 [1] [µM] | Emax [2] [%] | EC50 [2] [µM] | Compound
1 | < 75 | > 0.316 | < 75 | > 10 | CC(C)n1nnc2cc(-c3noc(C45CC6CC(CC(C6)C4)C5)n3)ccc21 [Compound 200, 5-[5-(adamantan-1-yl)-1,2,4-oxadiazol-3-yl]-1-(propan-2-yl)-1H-1,2,3-benzotriazole]
2 | < 75 | > 0.316 | > 75 | > 10 | Cc1cc(-c2nc(-c3ccc4c(c3)nnn4C(C)C)no2)cnc1C [Compound 201, 5-(5,6-dimethyl-pyridin-3-yl)-3-(1-isopropyl-1H-benzo[d][1,2,3]triazol-5-yl)-1,2,4-oxadiazole]
3 | > 75 | > 0.316 | > 75 | > 10 | COc1ccccc1-c1nsc(-c2ccc3c(c2)nnn3C(C)C)n1 [Compound 213, 5-[3-(2-methoxy-phenyl)-1,2,4-thiadiazol-5-yl]-1-(propan-2-yl)-1H-1,2,3-benzotriazole]
4 | < 75 | > 0.316 | < 75 | > 10 | O=C1CC2(CCC(F)(F)CC2)Oc2ccc(-c3nc(-c4ccncc4)no3)cc21 [Compound 217, 4′,4′-difluoro-6-[3-(pyridin-4-yl)-1,2,4-oxadiazol-5-yl]-3,4-dihydrospiro[1-benzopyran-2,1′-cyclohexane]-4-one]
5 | > 75 | > 0.316 | > 75 | > 10 | CCCC1(CCC)CC(=O)c2cc(-c3nc(-c4cccnc4)no3)ccc2O1 [Compound 218, 2,2-dipropyl-6-[3-(pyridin-3-yl)-1,2,4-oxadiazol-5-yl]-3,4-dihydro-2H-1-benzopyran-4-one]
6 | < 75 | > 0.316 | < 75 | > 10 | CC(C)n1nnc2cc(-c3ncc(-c4ccccc4Br)s3)ccc21 [Compound 220, 5-(2-bromophenyl)-2-(1-isopropylbenzo-triazol-5-yl)thiazole]
7 | > 75 | > 0.316 | < 75 | < 10 | CCC1(CC)CC(=O)c2cc(-c3nsc(-c4ccccc4OC)n3)ccc2O1 [Compound 222, 2,2-diethyl-6-(5-(2-methoxyphenyl)-1,2,4-thiadiazol-3-yl)chroman-4-one]
8 | > 75 | > 0.316 | < 75 | < 10 | CCC1(CC)CC(=O)c2cc(-c3nc(-c4cccc(C)c4)no3)ccc2O1 [Compound 225, 2,2-diethyl-6-(3-(m-tolyl)-1,2,4-oxadiazol-5-yl)chroman-4-one]
9 | > 75 | > 0.316 | > 75 | > 10 | CCC1(CC)CC(=O)c2cc(-c3nc(-c4ccncc4F)no3)ccc2O1 [Compound 226, 2,2-diethyl-6-(3-(3-fluoropyridin-4-yl)-1,2,4-oxadiazol-5-yl)chroman-4-one]
10 | < 75 | < 0.316 | > 75 | > 10 | CCC1(CC)CC(=O)c2cc(-c3nc(-c4cccc(O)c4)no3)ccc2O1 [Compound 227, 2,2-diethyl-6-[3-(3-hydroxyphenyl)-1,2,4-oxadiazol-5-yl]chroman-4-one]
11 | < 75 | > 0.316 | < 75 | > 10 | COc1cccc(-c2noc(-c3ccc4c(c3)nnn4C(C)C)n2)c1 [Compound 228, 5-(1-isopropyl-1H-benzo[d][1,2,3]triazol-5-yl)-3-(3-methoxy-phenyl)-1,2,4-oxadiazole]
12 | < 75 | > 0.316 | < 75 | < 10 | Cc1cncc(-c2nc(-c3ccc4c(c3)nnn4C(C)C)no2)n1 [Compound 229, 3-(1-isopropyl-1H-benzo[d][1,2,3]triazol-5-yl)-5-(6-methyl-pyrazin-2-yl)-1,2,4-oxadiazole]
13 | < 75 | > 0.316 | < 75 | > 10 | Cc1ccc(-c2nc(-c3ccc4c(c3)nnn4C3CCCC3)no2)cc1 [Compound 235, 3-(1-cyclopentyl-1H-benzo[d][1,2,3]triazol-5-yl)-5-(p-tolyl)-1,2,4-oxadiazole]
14 | > 75 | < 0.316 | > 75 | < 10 | CC(C)Oc1ccc(-c2nc(-c3ccc4c(c3)nnn4C(C)C)no2)cc1C(F)(F)F [Compound 246, 5-(4-isopropoxy-3-(trifluoromethyl)phenyl)-3-(1-isopropyl-1H-benzo[d][1,2,3]triazol-5-yl)-1,2,4-oxadiazole]
15 | < 75 | > 0.316 | < 75 | > 10 | CC(C)n1nnc2cc(-c3noc(-c4ccc(-c5ccccc5)cc4)n3)ccc21 [Compound 248, 5-([1,1′-biphenyl]-4-yl)-3-(1-isopropyl-1H-benzo[d][1,2,3]triazol-5-yl)-1,2,4-oxadiazole]
16 | > 75 | > 0.316 | < 75 | > 10 | CC(C)n1nnc2cc(-c3nc(-c4cncnc4)no3)ccc21 [Compound 249, 1-(propan-2-yl)-5-[3-(pyrimidin-5-yl)-1,2,4-oxadiazol-5-yl]-1H-1,2,3-benzotriazole]
17 | > 75 | > 0.316 | < 75 | > 10 | CCC1(CC)CC(=O)c2cc(-c3nc(-c4ccccc4OC)ns3)ccc2O1 [Compound 257, 2,2-diethyl-6-(3-(2-methoxyphenyl)-1,2,4-thiadiazol-5-yl)chroman-4-one]
18 | < 75 | > 0.316 | < 75 | > 10 | CCC1(CC)CC(=O)c2cc(-c3nc(-c4cccnc4O)no3)ccc2O1 [Compound 258, 2,2-diethyl-6-(3-(2-hydroxypyridin-3-yl)-1,2,4-oxadiazol-5-yl)chroman-4-one]
19 | > 75 | > 0.316 | < 75 | < 10 | CCC1(CC)CC(=O)c2cc(-c3nc(-c4cccc(Cl)c4)no3)ccc2O1 [Compound 261, 6-[3-(3-chlorophenyl)-1,2,4-oxadiazol-5-yl]-2,2-diethyl-chroman-4-one]
20 | > 75 | > 0.316 | > 75 | < 10 | CCC1(CC)CC(=O)c2cc(-c3nc(-c4ccc(S(=O)(=O)NC)cc4)no3)ccc2O1 [Compound 266, 4-(5-(2,2-diethyl-4-oxochroman-6-yl)-1,2,4-oxadiazol-3-yl)-N-methylbenzene-sulfonamide]
21 | > 75 | < 0.316 | > 75 | < 10 | CCC1(CC)CC(=O)c2cc(-c3nc(-c4ccccc4OC)no3)ccc2O1 [Compound 268, 2,2-diethyl-6-[3-(2-methoxyphenyl)-1,2,4-oxadiazol-5-yl]chroman-4-one]
22 | < 75 | > 0.316 | < 75 | > 10 | C=CCn1nnc2cc(-c3nc(-c4ccccc4)no3)ccc21 [Compound 270, 5-(3-phenyl-1,2,4-oxadiazol-5-yl)-1-(prop-2-en-1-yl)-1H-1,2,3-benzotriazole]
23 | < 75 | > 0.316 | < 75 | > 10 | Cc1cccc(-c2nc(-c3ccc4c(c3)nnn4C3CCCC3)no2)c1 [Compound 273, 3-(1-cyclopentyl-1H-benzo[d][1,2,3]triazol-5-yl)-5-(m-tolyl)-1,2,4-oxadiazole]
24 | > 75 | < 0.316 | > 75 | < 10 | CSc1ccccc1-c1nc(-c2ccc3c(c2)nnn3C(C)C)no1 [Compound 276, 3-(1-isopropyl-1H-benzo[d][1,2,3]triazol-5-yl)-5-(2-(methylthio)phenyl)-1,2,4-oxadiazole]
25 | < 75 |  | < 75 |  | CC(C)n1nnc2cc(-c3noc(C4CCCC4)n3)ccc21 [Compound 278, 5-(5-cyclopentyl-1,2,4-oxadiazol-3-yl)-1-(propan-2-yl)-1H-1,2,3-benzotriazole5-(5-cyclopentyl-1,2,4-oxadiazol-3-yl)-1-(propan-2-yl)-1H-1,2,3-benzotriazole]
26 | < 75 | > 0.316 | < 75 | > 10 | CC(C)Cn1nnc2cc(-c3nc(-c4ccccc4Cl)no3)ccc21 [Compound 289, 5-[3-(2-chlorophenyl)-1,2,4-oxadiazol-5-yl]-1-(2-methylpropyl)-1H-1,2,3-benzotriazole]
27 | > 75 | > 0.316 | < 75 | < 10 | O=C1CC2(CCCC2)Oc2ccc(-c3nc(-c4cccnc4)no3)cc21 [Compound 298, 6-[3-(pyridin-3-yl)-1,2,4-oxadiazol-5-yl]-3,4-dihydrospiro[1-benzopyran-2,1′-cyclopentane]-4-one]
28 | > 75 | > 0.316 | > 75 | > 10 | CCC1(CC)CC(=O)c2cc(-c3nnc(-c4ccccc4OC)o3)ccc2O1 [Compound 300, 2,2-diethyl-6-(5-(2-methoxyphenyl)-1,3,4-oxadiazol-2-yl)chroman-4-one]
29 | > 75 | > 0.316 | < 75 | > 10 | CCC1(CC)CC(=O)c2cc(-c3nc(-c4ccc5c(c4)nnn5C(C)C)no3)ccc2O1 [Compound 305, 2,2-diethyl-6-(3-(1-isopropyl-1H-benzo[d][1,2,3]triazol-5-yl)-1,2,4-oxadiazol-5-yl)chroman-4-one]
